In patent US6372209B1, “Vaginal lactobacillus medicant” (Gyne Logix, Inc., priority 1997, dated 2002):

Assay: Purity and genetic fingerprint (Rep PCR) of suppository lots
Method: (1.1) Purity of the strain: The purity of the suppository strain (i.e., lack of presence of contaminating organisms in a culture) was confirmed by specifically distinguishing the suppository strain from other strains using DNA fingerprinting techniques. DNA fingerprinting was performed by Repetitive Sequence Polymerase Chain Reaction (Rep PCR). In order to determine whether the Rep PCR method could distinguish the suppository strain (CTV-05) from endogenous L. crispatus, 40 strains of L. crispatus were recovered from the vagina of women of child-bearing age and compared to CTV-05. L. crispatus species identity was determined using whole chromosomal DNA homology to control strain L. crispatus ATCC 33197. […] The suppository strain (CTV-05) was distinguished from the others by four bands in the 2500-1500 base pair region. In this region, the CTV-05 fingerprint consists of intense bands at 2500 and 1500 and less amplified bands at 2000 and 1736 base pairs (data not shown).
Six different lots of L. crispatus CTV-05 prepared over a 2 year period were evaluated for purity and stability of the genetic fingerprint. […] Further, there has been no lot-to-lot variability in the “fingerprint” of the DNA of the suppository strain (data not shown).

Question: With Lactobacillus crispatus CTV-05 as the substance, how does the contaminants in lots (six lots prepared over a 2 year period, enriched chopped meat broth, anaerobic) read?
Answer: free of contaminants

Question: What about the “genetic fingerprint (Rep PCR) between lots” value (small scale and scale-up lots) of the same substance?
Answer: identical fingerprints
